Source: patent US11479587B2, “Cationic intrinsically disordered antimicrobial peptides” (priority 2016, dated 2022)
Marks after values point to notes of the source that are not given here. No end group written: not given here. *: point of attachment. Palmitoyl = CCCCCCCCCCCCCCCC(=O)*; Myristoyl = CCCCCCCCCCCCCC(=O)*

B1: LGHGQHGSGSGQSPSPSRGRHGSGSGQSSSYGPYRSGSGWSSSRGPYESGSGHSSGLGHRER (peptide)
chain: LGHGQHGSGSGQSPSPSRGRHGSGSGQSSSYGPYRSGSGWSSSRGPYESGSGHSSGLGHRER
modifications: Peptide derived from human hornerin (HRNR 995-1056)
B2: GHGRQGSGSRQSPSHVRHGSGSGHSSSHGQHGSGSSYSYSRGHYESGSGQTSGFGQHESGSGQSSGY (peptide)
chain: GHGRQGSGSRQSPSHVRHGSGSGHSSSHGQHGSGSSYSYSRGHYESGSGQTSGFGQHESGSGQSSGY
modifications: Peptide derived from human hornerin (HRNR 295-361)
B3: SQHKSSSGQSSGYSQHGSGSGHSSGYGQHGSRSGQSSRGDRHRSSSGSSSSYGQHGSGSRQSL (peptide)
chain: SQHKSSSGQSSGYSQHGSGSGHSSGYGQHGSRSGQSSRGDRHRSSSGSSSSYGQHGSGSRQSL
modifications: Peptide derived from human hornerin (HRNR 232-294)
B4: GHKSSSGQSSGYTQHGSGSGHSSSYEQHGSRSGQSSRSEQHGSSSGSSSSYGQHGSGSRQSL (peptide)
chain: GHKSSSGQSSGYTQHGSGSGHSSSYEQHGSRSGQSSRSEQHGSSSGSSSSYGQHGSGSRQSL
modifications: Peptide derived from human hornerin (HRNR 933-994)

Experiments:
S. aureus ATCC 6538 = test: CFU-assay, S. aureus-cidal activity; type: cell-based, Staphylococcus aureus
Description: Thus, within the present invention, the antimicrobial activity is generally measured in nutrient deficient 10 mM sodium phosphate buffer pH 5.5, containing 0.25% glucose, using the CFU-assay according to Steinberg and Lehrer, 1997 (supra), unless otherwise indicated. The CFU-assay allows determination of the minimal bactericidal concentration (MBC, e.g., MBC90 and MBC100; i.e. the concentration of compound required to achieve a specified reduction in bacterial cell number (microbial death or killing)).
Various peptides corresponding to repeat domains of hornerin (HR 1-11: HRNR 2606-2628; HR 1-17: HRNR 2656-2684 and HR 1-18: HRNR 2656-2677) were tested for P. aeruginosa ATCC 10145-cidal activity in 10 mM Na-phosphate buffer pH 5.5, containing 0.25% glucose by counting the numbers of colonies of surviving bacteria at serial, twofold dilutions from 300 μg/ml down to 19 ng/ml of each peptide (CFU-assay; Steinberg and Lehrer, 1997, Methods Mol. Biol. 78, 169-186).
Staphylococcus aureus is a major skin pathogen, which causes skin infections, in particular in atopic dermatitis. The sensitivity of S. aureus ATCC 6538 towards several CIDAMPs was assessed using the CFU-assay as above (see Example 1). HR 1-18, which lacks S. aureus.-bactericidal activity, is converted in a S. aureus-cidal peptide, when all His are replaced by Arg (HR 1-18 4H-4R; see Table 13 and FIG. 9). […] HR 1-18 4H-4R is rich in Ser and Arg and contains a single Leu residue. When this single Leu was replaced by Gly in S. aureus-cidal HR 1-18 4H-4R (forming HR 1-18 4H-4R/L-G), S. aureus-cidal activity was abolished at both pH 7.0 and pH 5.5 (see Table 13 and FIG. 9).

P. aeruginosa ATCC 10145 = test: CFU-assay, P. aeruginosa-cidal activity; type: cell-based, Pseudomonas aeruginosa

Row | Molecule | MBC90 (S. aureus ATCC 6538; pH 5.5, 0.25% glucose) [µg/mL] | MBC90 (P. aeruginosa ATCC 10145; pH 5.5, 0.25% glucose) | MBC100 (P. aeruginosa ATCC 10145; pH 5.5, 0.25% glucose) | other results
1 | GQHGSSSGHSSTHGQHGSASGQSSSC-Pal* (GQHGSSSGHSSTHGQHGSASGQSSSC(Pal)-NH2) [S-Pal-HRNR2004-2029] | 0.59 |  |  | 
2 | GQHGSSSGHSSTHGQHGSTSGQSSSC-Pal* (GQHGSSSGHSSTHGQHGSTSGQSSSC(Pal)-NH2) [S-Pal-HRNR598-623] | 2.35 |  |  | MBC100 (S. aureus ATCC 6538; pH 5.5, 0.25% glucose): >150 µg/mL
3 | GRHGSGSGQSSGFGHHESSSWQSSGC-Pal* (GRHGSGSGQSSGFGHHESSSWQSSGC(Palmitoyl)-NH2) [S-Pal-HRNR1389-1414] | 1.18 |  |  | MBC100 (S. aureus ATCC 6538; pH 5.5, 0.25% glucose): 18.8 µg/mL
4 | GRRGSGGGRSSSRGGRGSGSGR (Modified peptide derived from human hornerin (HR 1-18 4H-4R/L-G)) | >300 |  |  | MBC90 (P. aeruginosa ATCC 10145; pH 5.0, 0.25% glucose): 0.038 µg/mL; MBC100 (P. aeruginosa ATCC 10145; pH 5.0, 0.25% glucose): 0.15 µg/mL; MBC100 (S. aureus ATCC 6538; pH 5.5, 0.25% glucose): >300 µg/mL; S. aureus-cidal activity (in words) (S. aureus ATCC 6538; pH 7.0 and pH 5.5): abolished
5 | HTHSGHTHSQARSQHGESESTVHKR (Peptide derived from human filaggrin-2 (FLG-2 1894-1918)) [FLG-21894-1918] |  | 0.038 µg/mL | 0.3 µg/mL | 
6 | LGHSSSHGQHGSGSGRSSSRGPYESRLGH [HR 1-36 HRNR2663-2690] |  | 0.15 µg/mL | 2.35 µg/mL | 
7 | LRHGSGLGHSSSHGQHGSGSGR (Modified peptide derived from human hornerin (HR 1-18 G2656L)) | 300 |  |  | MBC90 (P. aeruginosa ATCC 10145; pH 5.0, 0.25% glucose): 4.7 µg/mL; MBC100 (P. aeruginosa ATCC 10145; pH 5.0, 0.25% glucose): >300 µg/mL; MBC100 (S. aureus ATCC 6538; pH 5.5, 0.25% glucose): >300 µg/mL
8 | Myr-GRRGSGLGRSSSRGQRGSGSGR (Myristoyl-GRRGSGLGRSSSRGQRGSGSGR) [Myr-HR 1-18 HR] |  |  |  | MBC90 (S. aureus ATCC 6538; pH 7.3, 1% TSB): 18.75 µg/mL; MBC100 (S. aureus ATCC 6538; pH 7.3, 1% TSB): 75 µg/mL
9 | Pal-CGQHGATSGQSSSHGQHGSGSSQSSR (C(Palmitoyl)GQHGATSGQSSSHGQHGSGSSQSSR) [S-Pal-HRNR623-648] | 2.35 |  |  | MBC100 (S. aureus ATCC 6538; pH 5.5, 0.25% glucose): >150 µg/mL
10 | Pal-CGQHGATSSGQSSSHGQHGSGSSQSSGYGR (C(Palmitoyl)GQHGATSSGQSSSHGQHGSGSSQSSGYGR) [S-Pal-HRNR1089-1117] | >150 |  |  | MBC100 (S. aureus ATCC 6538; pH 5.5, 0.25% glucose): >150 µg/mL
11 | Pal-SHHRHFRSHQCRRQRSNSCDR (Palmitoyl-SHHRHFRSHQCRRQRSNSCDR; cysteine pairing not given here) [Pal-LCE3C55-75] | 0.15 |  |  | MBC100 (S. aureus ATCC 6538; pH 5.5, 0.25% glucose): 0.59 µg/mL
12 | QGSHHEQSVNRSGHSGSHHSHTTSQGR (Peptide derived from human filaggrin (FLG 528-554)) [FLG528-554] |  | 0.15 µg/mL | 0.59 µg/mL | 
13 | RGR (Synthetic cationic intrinsically disordered antimicrobial peptide (GR3)) |  | 150 µM | >930 µM | 
14 | RGRGR (Synthetic cationic intrinsically disordered antimicrobial peptide (GR5)) |  | 6.1 µM | >500 µM | 
15 | RGRGRGR (Synthetic cationic intrinsically disordered antimicrobial peptide (GR7)) |  | 0.31 µM | 2.8 µM | 
16 | RGRGRGRGR (Synthetic cationic intrinsically disordered antimicrobial peptide (GR9)) |  | 0.22 µM | >400, μM | MBC99 (P. aeruginosa ATCC 10145; pH 5.5, 0.25% glucose): MBC99: 10.2 μM

Row | Molecule | MBC90 (S. aureus ATCC 6538; pH 5.5, 0.25% glucose) [µg/mL] | MBC90 (P. aeruginosa ATCC 10145; pH 5.5, 0.25% glucose) | MBC100 (P. aeruginosa ATCC 10145; pH 5.5, 0.25% glucose) | other results
17 | RGSGSGHQGHSSSHGLGSGHRG (Peptide with reverse sequence to 18 amino acid peptide derived from human hornerin (revHR 1-18)) |  |  |  | MBC90 (P. aeruginosa ATCC 10145; pH 5.0, 0.25% glucose): <0.019 µg/mL; MBC100 (P. aeruginosa ATCC 10145; pH 5.0, 0.25% glucose): 0.075 µg/mL
18 | RGSRSGQSSRGERR (Modified peptide derived from human hornerin (HR 1-11s 2H2R-14)) |  | 0.15 µg/mL | 4.7 µg/mL | 
19 | RGSRSGQSSRGERRGSSSGSSSR (Modified peptide derived from human hornerin (HR 1-11 3H3R)) |  | 0.3 µg/mL | 9.375* μg/ml | 
20 | RHGSGLGHSSSH (Peptide derived from human hornerin (HR 1-27 HRNR 2657-2668)) [HR 1-27 HRNR2657-2668] |  | 75-100* μg/ml |  | 
21 | RHGSGLGHSSSHGQH (Peptide derived from human hornerin (HR 1-26 HRNR 2657-2671)) [HR 1-26 HRNR2657-2671] |  |  | 4.7-75* μg/ml | 
22 | RQSPSYGRHGSGSGR (Peptide derived from human hornerin (HR 2-14 HRNR 1136-1150)) [HR 2-14 HRNR1136-1150] |  |  |  | MBC90 (P. aeruginosa ATCC 10145; pH 5.5, 1% TSB): 300 µg/mL; MBC100 (P. aeruginosa ATCC 10145; pH 5.5, 1% TSB): >300 µg/mL
23 | SGHSSVFGQHESGSGHSSAYSQHGSGSGHFC-Pal* (SGHSSVFGQHESGSGHSSAYSQHGSGSGHFC(Palmitoyl)-NH2) [S-Pal-HRNR1748-1778] | 0.3 |  |  | MBC100 (S. aureus ATCC 6538; pH 5.5): 2.8 µM; MBC100 (S. aureus ATCC 6538; pH 5.5, 0.25% glucose): 9.38 µg/mL; MBC90 (S. aureus ATCC 6538; pH 5.5, 0.25% glucose (text)): 0.09 µM
24 | SLSSGHGSGHGHQRGGHRSGSG (Peptide with scrambled amino acid sequence of a 18 amino acid peptide derived from human hornerin (scrHR 1-18)) |  |  |  | MBC90 (P. aeruginosa ATCC 10145; pH 5.0, 0.25% glucose): <0.019 µg/mL; MBC100 (P. aeruginosa ATCC 10145; pH 5.0, 0.25% glucose): 0.075 µg/mL
25 | SRQSPSYGRHGSGR (Modified peptide derived from human hornerin (HR 2-15 HRNR 1136-1150 S1148R)) [HR 2-15 HRNR1136-1150 S1148R] |  |  |  | MBC90 (P. aeruginosa ATCC 10145; pH 5.5, 1% TSB): 75 µg/mL; MBC100 (P. aeruginosa ATCC 10145; pH 5.5, 1% TSB): >300 µg/mL
26 | SRRSSSLSRSSSRSSRSSSSSR (Modified peptide derived from human hornerin (HR 1-18 4H-4R/9G-9S)) | 150 |  |  | MBC90 (P. aeruginosa ATCC 10145; pH 5.0, 0.25% glucose): 0.15 µg/mL; MBC100 (P. aeruginosa ATCC 10145; pH 5.0, 0.25% glucose): 1.18 µg/mL; MBC100 (S. aureus ATCC 6538; pH 5.5, 0.25% glucose): >300 µg/mL; MBC90 (S. aureus ATCC 6538; pH 7.2, 0.25% glucose): 75 µg/mL; MBC100 (S. aureus ATCC 6538; pH 7.2, 0.25% glucose): >300 µg/mL
27 | TAGRRGSGH (Peptide derived from human filaggrin-2 (FLG-2 2097-2105)) [FLG-22097-2105] |  | >300 µg/mL | >300 µg/mL | 
28 | THEHEQSHQRRDRQTHEDKQNRQR (Peptide derived from human repetin (RPTN 747-770)) [RPTN747-770] |  | 0.3 µg/mL | 150 µg/mL | 
29 | B1 |  | 0.3 µg/mL | 2.35 µg/mL | 
30 | B2 |  | 0.15 µg/mL | 0.59 µg/mL | 
31 | B3 |  | 0.30 µg/mL | 2.35 µg/mL | 
32 | B4 |  | 0.3 µg/mL | 2.35 µg/mL | 
